Laboratory results taken from patent US20250041311A1, “Compound For Treating or Preventing Vimentin-Mediated Diseases” (Aluda Pharmaceuticals, Inc., priority 2021, published 2025).
Entries after “also recorded” stand apart in the source; their conditions may differ.

How the values were obtained:
Huh7-NC12 cells [1] = test: PrestoBlue cell viability of liver cancer cells; details: for cytotoxicity: 48 h, highest concentration 10,000 nM, high concentrations 3,160 and 10,000 nM; for survival rate: after two days of treatment; for toxicity to Huh7-NC12 cells: high concentrations (>3160 nM)
Huh7-NC12 cells [2] = test: Exosome release from liver cancer cells (luciferase exosome reporter, ExoHTP platform); assay type: cell-based; details: 48 h, luciferase activity of exosomes purified from supernatant
vimentin [3] = molecular target: T1, vimentin (Homo sapiens, UniProt P08670); test: Immunofluorescence microscopy of the vimentin intermediate filament network; assay type: cell-based; parameters: react with mouse anti-VIM antibody (Sigma, 1:200) at room temperature; endogenous in cells; host or cells: U87 human glioma cells; details: U87 cells treated with C50 for 24 h, confocal immunofluorescence
Description: (§1) Cell culture: Human cancer cell lines were obtained from the Institute of Cell Research, Chinese Academy of Sciences or ATCC. Cells were cultured in an incubator with 5% CO2 in RMPI1640 supplemented with 10% fetal bovine serum, 2 mM L-glutamine and 1× penicillin-streptomycin (100 IU/ml-100 μg/ml).
Immunofluorescence microscopy: Cells were cultured in 4-well coverslips, treated with DMSO or C50 for 24 h, fixed with 2% paraformaldehyde at 37° C. for 15 minutes, permeabilized in 0.2% Triton X-100 PBS at room temperature Wash for 15 min, wash 3 times with 0.05% Triton X-100 TBS, block with 10% normal goat serum in 0.05% Triton X-100 TBS, then react with mouse anti-VIM antibody (Sigma, 1:200) at room temperature Incubate for 3 h. Cells were washed 3 times with 0.05% Triton X-100 in PBS, and then incubated with Cy TM3-conjugated anti-mouse IgG antibody (Jackson, 1:300) for 1 h at room temperature. Nuclei were stained with DAPI for 5-10 min. Immunofluorescence was observed using a FV1000 (Olympus) confocal microscope.
Target sequence in this assay (P08670 2-466 limits assumed): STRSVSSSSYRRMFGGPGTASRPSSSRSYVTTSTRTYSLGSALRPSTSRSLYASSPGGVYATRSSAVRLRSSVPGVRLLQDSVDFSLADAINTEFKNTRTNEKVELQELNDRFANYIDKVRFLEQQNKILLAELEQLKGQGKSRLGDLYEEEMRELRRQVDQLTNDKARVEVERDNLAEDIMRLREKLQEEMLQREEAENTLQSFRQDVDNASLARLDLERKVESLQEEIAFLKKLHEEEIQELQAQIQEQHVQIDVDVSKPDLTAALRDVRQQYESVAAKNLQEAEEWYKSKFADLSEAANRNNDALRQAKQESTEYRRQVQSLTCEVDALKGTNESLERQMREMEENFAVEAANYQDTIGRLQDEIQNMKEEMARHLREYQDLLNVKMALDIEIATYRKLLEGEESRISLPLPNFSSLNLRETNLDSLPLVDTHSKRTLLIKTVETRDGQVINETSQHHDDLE

GFAP = molecular target: T2, GFAP (Homo sapiens, UniProt P14136); test: Immunofluorescence microscopy of the GFAP network (specificity control); assay type: cell-based; details: U87 glioma cells treated with C50
T2 construct: endogenous in cells; host or cells: U87 human glioma cells
T2 sequence (P14136 whole entry): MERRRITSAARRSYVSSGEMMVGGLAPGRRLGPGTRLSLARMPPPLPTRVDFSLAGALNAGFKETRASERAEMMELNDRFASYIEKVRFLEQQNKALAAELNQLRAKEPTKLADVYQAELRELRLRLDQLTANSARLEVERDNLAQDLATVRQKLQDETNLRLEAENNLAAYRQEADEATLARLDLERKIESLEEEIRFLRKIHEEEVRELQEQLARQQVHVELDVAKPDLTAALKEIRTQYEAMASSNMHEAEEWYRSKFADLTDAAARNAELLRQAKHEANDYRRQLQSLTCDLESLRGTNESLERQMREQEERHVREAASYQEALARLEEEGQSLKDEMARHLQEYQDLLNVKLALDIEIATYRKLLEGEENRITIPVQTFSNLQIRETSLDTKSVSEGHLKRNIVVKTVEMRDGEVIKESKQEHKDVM

vimentin [4] = molecular target: T1, vimentin; test: Fluorescence recovery after photobleaching (FRAP) of GFP-vimentin in U87 cells; assay type: cell-based; parameters: expressed in transfected cells; host or cells: U87 human glioma cells, transient transfection; details: cells treated with C50 for 24 h, vs DMSO
Description: as §1
Target sequence in this assay (P08670 whole entry, species assumed): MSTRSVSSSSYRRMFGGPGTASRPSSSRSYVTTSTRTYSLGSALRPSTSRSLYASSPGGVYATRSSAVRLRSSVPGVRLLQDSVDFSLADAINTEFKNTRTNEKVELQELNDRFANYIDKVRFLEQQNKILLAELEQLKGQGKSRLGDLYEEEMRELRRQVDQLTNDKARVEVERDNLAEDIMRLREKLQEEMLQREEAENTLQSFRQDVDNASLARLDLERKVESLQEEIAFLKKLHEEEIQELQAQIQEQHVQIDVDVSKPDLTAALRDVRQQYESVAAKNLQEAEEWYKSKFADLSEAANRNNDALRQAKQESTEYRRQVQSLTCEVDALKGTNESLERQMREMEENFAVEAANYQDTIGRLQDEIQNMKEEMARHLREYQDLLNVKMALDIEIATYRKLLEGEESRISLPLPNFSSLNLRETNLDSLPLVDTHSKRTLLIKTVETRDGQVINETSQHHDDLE
Fluorescence recovery after photobleaching (FRAP): Cells were cultured on 4-well coverslips and transiently transfected with pEGFP-Vim expression vector using Lipofectamine 2000 (Invitrogen) following the manufacturer's instructions. Twenty-four h after transfection, cells were treated with DMSO or C50 for 24 h. FRAP experiments were performed using a confocal microscope system (Fluoview 1,000; Olympus). For photobleaching, the region of interest (ROI) was irradiated with 60% laser power (488 nm) for 2 s. Images were taken every 30 s for 5 min to monitor fluorescence recovery. Fluorescence intensities were corrected for sample background at each time point. After data collection, the fluorescence intensity of ROI was extracted by ImageJ software.

EAE mice = test: MOG-induced experimental autoimmune encephalomyelitis (EAE) mouse model; assay type: in vivo; details: FTY720 1 mg/kg, oral once a day, vs vehicle

Row | SMILES | cytotoxicity (Huh7-NC12 cells [1]) | survival rate (Huh7-NC12 cells [1]) | toxicity to Huh7-NC12 cells (Huh7-NC12 cells [1]) | inhibition of exosome release (Huh7-NC12 cells [2]) | also measured
1 | O=C(Nc1ccc(F)cc1)Nc1ccc(Nc2nc(/C=C/c3ccc(Cl)cc3)nc(N3CCOCC3)n2)cc1 [Compound C45] | not cytotoxic | about 90% | not toxic | stronger inhibitory effects than GW4869; also recorded: effectively inhibit the release of exosomes | 
2 | O=C(Nc1ccc(Cl)cc1)Nc1ccc(Nc2nc(/C=C/c3ccccc3)nc(N3CCOCC3)n2)cc1 [Compound C50] |  |  |  |  | reorganization of the vimentin network (vimentin [3]): significant reorganization of the vimentin network; structural changes of GFAP intermediate filament protein (GFAP): no structural changes; time required to recover fluorescence in the photobleached region (vimentin [4]): significantly delayed
3 | O=C(Nc1ccc(Nc2nc(/C=C/c3ccccc3)nc(N3CCOCC3)n2)cc1)Nc1ccnc(Cl)c1 [Compound C52M] | cytotoxic |  | cytotoxic | effectively inhibit the release of exosomes | 
4 | O=C(Nc1ccc(Nc2nc(/C=C/c3ccccc3)nc(N3CCOCC3)n2)cc1)Nc1ccc(C(=O)O)cc1 [Compound C69A] | not cytotoxic | about 90% | not toxic | stronger inhibitory effects than GW4869; also recorded: effectively inhibit the release of exosomes | 
5 | CN1CCN(C(=O)c2ccc(NC(=O)Nc3ccc(Nc4nc(/C=C/c5ccccc5)nc(N5CCOCC5)n4)cc3)cc2)CC1 [Compound C69B] | cytotoxic |  | cytotoxic | effectively inhibit the release of exosomes | 
6 | CCCCCCCCc1ccc(CCC(N)(CO)CO)cc1 [FTY720, reference compound] |  |  |  |  | animal weight loss (EAE mice): reduced; clinical disease scores (EAE mice): improved
7 | O=C(/C=C/c1ccc(/C=C/C(=O)Nc2ccc(C3=NCCN3)cc2)cc1)Nc1ccc(C2=NCCN2)cc1 [GW4869, reference compound] | not cytotoxic | about 90% |  |  | 
